{"source": "patent US20100286038A1", "about": "“FORMULATION CONTAINING CYCLIN-DEPENDENT KINASE INHIBITING COMPOUND AND METHOD OF TREATING TUMORS USING THE SAME” (priority 2007, published 2010)", "key": {"[1]": {"test_system": "AMPK", "test": "Upstate kinase Profiler counter-screening", "format": "biochemical"}, "[2]": {"molecular_target": "T1, CDK7/cyclinH/MAT1 (Homo sapiens, UniProt P50613)", "T1 construct": "purchased Upstate", "test": "Upstate kinase Profiler counter-screening", "format": "biochemical"}, "[3]": {"test": "in vivo", "conditions": "nude, mouse, ip"}, "[4]": {"test_system": "A2780 cells", "test": "in-cell inhibition of thymidine incorporation", "format": "cell-based", "conditions": "Homo sapiens"}, "[5]": {"test_system": "A2780 ovarian carcinoma xenografts", "test": "A2780 xenograft ovarian cancer model", "format": "in vivo, nude mice"}, "[6]": {"molecular_target": "T2, Lyn (Homo sapiens, UniProt P07948)", "T2 construct": "purchased Upstate", "T2 sequence (P07948 whole entry, species assumed)": "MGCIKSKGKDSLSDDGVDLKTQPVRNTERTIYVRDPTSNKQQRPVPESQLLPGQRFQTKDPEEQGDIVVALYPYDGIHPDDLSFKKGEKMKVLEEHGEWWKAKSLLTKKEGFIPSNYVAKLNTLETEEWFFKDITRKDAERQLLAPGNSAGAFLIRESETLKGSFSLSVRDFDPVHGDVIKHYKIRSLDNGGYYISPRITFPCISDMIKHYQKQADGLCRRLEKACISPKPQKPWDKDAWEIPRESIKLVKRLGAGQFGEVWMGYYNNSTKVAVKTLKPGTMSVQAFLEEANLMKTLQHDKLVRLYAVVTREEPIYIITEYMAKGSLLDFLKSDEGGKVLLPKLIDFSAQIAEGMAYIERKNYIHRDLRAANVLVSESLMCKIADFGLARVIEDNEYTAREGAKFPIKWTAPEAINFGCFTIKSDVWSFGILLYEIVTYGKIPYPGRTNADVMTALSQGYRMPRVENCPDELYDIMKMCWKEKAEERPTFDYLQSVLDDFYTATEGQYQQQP", "test": "Upstate kinase Profiler counter-screening", "format": "biochemical"}, "[7]": {"molecular_target": "T3, PKCε (Homo sapiens, UniProt Q02156)", "T3 construct": "purchased Upstate", "T3 sequence (Q02156 1-737)": "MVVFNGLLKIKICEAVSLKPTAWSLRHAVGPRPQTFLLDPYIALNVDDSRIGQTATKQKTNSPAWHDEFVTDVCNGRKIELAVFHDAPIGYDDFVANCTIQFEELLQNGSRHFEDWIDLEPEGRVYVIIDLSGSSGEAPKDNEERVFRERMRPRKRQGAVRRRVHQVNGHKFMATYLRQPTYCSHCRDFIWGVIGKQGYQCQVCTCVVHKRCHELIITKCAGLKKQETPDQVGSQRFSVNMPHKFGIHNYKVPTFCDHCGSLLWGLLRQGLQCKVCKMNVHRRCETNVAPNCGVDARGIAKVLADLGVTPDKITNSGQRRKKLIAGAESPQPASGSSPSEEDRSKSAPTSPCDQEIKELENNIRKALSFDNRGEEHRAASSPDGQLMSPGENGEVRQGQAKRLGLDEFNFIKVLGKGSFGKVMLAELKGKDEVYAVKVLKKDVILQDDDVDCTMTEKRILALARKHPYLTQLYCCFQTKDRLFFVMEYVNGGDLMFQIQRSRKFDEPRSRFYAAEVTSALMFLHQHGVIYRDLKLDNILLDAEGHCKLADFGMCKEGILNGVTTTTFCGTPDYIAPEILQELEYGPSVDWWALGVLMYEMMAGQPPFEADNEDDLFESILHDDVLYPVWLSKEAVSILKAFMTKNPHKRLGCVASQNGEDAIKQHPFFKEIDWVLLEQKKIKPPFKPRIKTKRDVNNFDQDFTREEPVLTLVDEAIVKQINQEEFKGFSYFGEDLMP", "test": "Upstate kinase Profiler counter-screening", "format": "biochemical"}, "[8]": {"molecular_target": "T4, PKCα (Homo sapiens, UniProt P17252)", "T4 construct": "purchased Upstate", "test": "Upstate kinase Profiler counter-screening", "format": "biochemical"}, "[9]": {"molecular_target": "T5, Rsk2 (Homo sapiens, UniProt P51812)", "T5 construct": "purchased Upstate", "T5 sequence (P51812 whole entry, species assumed)": "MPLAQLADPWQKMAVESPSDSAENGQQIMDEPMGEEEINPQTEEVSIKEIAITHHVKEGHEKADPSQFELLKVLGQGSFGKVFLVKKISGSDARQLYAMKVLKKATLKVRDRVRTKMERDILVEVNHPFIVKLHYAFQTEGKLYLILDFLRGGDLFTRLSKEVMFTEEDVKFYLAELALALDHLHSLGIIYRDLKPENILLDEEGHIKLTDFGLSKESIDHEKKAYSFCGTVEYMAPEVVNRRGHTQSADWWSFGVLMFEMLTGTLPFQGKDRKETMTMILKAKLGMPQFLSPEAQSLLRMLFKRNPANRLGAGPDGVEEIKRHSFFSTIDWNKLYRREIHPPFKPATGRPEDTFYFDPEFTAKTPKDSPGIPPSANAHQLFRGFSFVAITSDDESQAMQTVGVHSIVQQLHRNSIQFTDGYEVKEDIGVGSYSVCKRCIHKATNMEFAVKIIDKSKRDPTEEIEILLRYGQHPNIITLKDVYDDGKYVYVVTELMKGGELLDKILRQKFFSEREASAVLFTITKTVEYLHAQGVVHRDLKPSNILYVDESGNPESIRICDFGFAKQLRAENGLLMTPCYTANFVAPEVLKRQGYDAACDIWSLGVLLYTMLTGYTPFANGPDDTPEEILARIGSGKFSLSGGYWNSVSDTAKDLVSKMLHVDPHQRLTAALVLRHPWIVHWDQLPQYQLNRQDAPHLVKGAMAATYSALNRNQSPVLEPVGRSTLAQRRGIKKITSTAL", "test": "Upstate kinase Profiler counter-screening", "format": "biochemical"}, "[10]": {"molecular_target": "T6, CDK6/cyclinD3 (Homo sapiens, UniProt Q00534)", "T6 construct": "purchased Upstate", "T6 sequence (Q00534 whole entry, species assumed)": "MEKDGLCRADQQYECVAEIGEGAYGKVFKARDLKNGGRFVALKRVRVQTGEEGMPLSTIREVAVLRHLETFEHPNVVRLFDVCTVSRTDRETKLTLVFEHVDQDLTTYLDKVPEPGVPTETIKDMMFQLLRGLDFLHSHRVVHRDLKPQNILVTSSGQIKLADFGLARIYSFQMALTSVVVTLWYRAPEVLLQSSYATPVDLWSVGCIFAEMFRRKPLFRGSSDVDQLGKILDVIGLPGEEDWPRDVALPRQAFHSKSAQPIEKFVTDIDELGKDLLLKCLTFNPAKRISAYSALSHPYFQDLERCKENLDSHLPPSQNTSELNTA", "T6 sequence (P30281 whole entry partner, species assumed)": "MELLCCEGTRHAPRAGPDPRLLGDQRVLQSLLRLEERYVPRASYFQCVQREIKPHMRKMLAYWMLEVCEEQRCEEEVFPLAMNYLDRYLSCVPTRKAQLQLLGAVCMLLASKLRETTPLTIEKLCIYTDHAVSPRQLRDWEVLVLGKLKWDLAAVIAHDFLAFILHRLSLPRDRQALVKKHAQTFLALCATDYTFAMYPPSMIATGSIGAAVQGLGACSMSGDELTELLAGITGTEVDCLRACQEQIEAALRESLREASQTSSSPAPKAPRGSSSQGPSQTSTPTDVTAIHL", "test": "Upstate kinase Profiler counter-screening", "format": "biochemical"}, "[11]": {"molecular_target": "T7, PKCθ (Homo sapiens, UniProt Q04759)", "T7 construct": "purchased Upstate", "T7 sequence (Q04759 whole entry)": "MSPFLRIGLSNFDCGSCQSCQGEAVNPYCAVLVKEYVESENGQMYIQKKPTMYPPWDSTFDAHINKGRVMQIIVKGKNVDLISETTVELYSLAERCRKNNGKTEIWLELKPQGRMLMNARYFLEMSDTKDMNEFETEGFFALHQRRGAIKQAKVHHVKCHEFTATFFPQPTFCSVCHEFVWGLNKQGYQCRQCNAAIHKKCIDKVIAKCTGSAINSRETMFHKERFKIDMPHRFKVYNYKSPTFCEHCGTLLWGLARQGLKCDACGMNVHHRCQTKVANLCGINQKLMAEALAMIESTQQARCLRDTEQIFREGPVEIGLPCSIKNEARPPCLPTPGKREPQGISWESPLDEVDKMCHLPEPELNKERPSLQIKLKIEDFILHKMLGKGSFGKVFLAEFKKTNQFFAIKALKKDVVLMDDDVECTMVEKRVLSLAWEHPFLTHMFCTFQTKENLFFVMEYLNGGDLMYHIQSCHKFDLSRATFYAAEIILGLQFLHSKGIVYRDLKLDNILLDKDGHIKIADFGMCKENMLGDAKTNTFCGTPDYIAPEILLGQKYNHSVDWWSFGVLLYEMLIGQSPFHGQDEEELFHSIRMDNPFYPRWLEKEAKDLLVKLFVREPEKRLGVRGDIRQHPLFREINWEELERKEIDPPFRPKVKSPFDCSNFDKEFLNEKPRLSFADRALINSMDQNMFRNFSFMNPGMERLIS", "test": "Upstate kinase Profiler counter-screening", "format": "biochemical"}, "[12]": {"test_system": "A2780 cells", "conditions": "16 hours exposure", "description": "Accumulation of the p85 PARP product was also monitored to assess activation of caspases and correlate inhibition of CDKs with the onset of apoptosis."}, "[13]": {"molecular_target": "T8, Fes (Homo sapiens, UniProt P07332)", "T8 construct": "purchased Upstate", "test": "Upstate kinase Profiler counter-screening", "format": "biochemical"}, "[14]": {"molecular_target": "T9, PKCβII (Homo sapiens, UniProt P05771)", "T9 construct": "purchased Upstate", "T9 sequence (P05771 1-673 isoform P05771-2)": "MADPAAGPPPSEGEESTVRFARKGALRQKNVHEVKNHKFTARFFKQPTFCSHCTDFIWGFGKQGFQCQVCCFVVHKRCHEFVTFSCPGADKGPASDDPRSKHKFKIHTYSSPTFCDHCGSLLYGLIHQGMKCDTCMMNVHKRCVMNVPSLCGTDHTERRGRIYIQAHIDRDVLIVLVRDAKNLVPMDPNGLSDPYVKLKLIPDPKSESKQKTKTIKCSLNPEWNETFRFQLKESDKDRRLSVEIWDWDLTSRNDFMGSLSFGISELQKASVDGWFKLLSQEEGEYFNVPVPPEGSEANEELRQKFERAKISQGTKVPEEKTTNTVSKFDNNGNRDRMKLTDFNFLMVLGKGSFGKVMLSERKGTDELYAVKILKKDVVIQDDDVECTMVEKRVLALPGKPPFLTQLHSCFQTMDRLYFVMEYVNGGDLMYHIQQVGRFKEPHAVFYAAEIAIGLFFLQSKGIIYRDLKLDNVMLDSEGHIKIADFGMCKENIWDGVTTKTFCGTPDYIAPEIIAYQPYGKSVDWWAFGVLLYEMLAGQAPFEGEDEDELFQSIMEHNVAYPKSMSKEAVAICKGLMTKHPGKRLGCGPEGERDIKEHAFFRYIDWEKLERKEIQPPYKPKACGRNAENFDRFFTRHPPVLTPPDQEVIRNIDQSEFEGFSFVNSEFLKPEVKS", "test": "Upstate kinase Profiler counter-screening", "format": "biochemical"}, "[15]": {"molecular_target": "T10, MSK1 (Homo sapiens, UniProt O75582)", "T10 construct": "purchased Upstate", "T10 sequence (O75582 whole entry, species assumed)": "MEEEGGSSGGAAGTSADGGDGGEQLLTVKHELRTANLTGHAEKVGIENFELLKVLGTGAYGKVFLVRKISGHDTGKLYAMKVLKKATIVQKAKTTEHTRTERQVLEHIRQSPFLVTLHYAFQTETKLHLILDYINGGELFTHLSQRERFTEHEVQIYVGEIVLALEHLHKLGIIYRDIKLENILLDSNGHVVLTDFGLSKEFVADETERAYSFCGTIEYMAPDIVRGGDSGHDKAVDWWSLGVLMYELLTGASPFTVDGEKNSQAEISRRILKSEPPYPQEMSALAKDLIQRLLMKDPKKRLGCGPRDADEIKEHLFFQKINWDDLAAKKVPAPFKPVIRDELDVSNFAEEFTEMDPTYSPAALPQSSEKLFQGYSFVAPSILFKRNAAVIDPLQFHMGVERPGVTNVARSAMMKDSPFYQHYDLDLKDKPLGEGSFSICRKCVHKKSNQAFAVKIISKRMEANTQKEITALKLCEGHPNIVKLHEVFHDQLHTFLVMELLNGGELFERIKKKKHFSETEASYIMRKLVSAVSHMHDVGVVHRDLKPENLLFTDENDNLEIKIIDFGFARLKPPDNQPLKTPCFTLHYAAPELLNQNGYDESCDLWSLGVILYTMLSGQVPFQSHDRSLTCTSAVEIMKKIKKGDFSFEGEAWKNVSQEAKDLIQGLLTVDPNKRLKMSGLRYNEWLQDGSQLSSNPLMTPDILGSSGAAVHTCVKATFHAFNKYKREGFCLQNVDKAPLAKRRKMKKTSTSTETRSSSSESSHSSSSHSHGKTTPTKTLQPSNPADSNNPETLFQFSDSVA", "test": "Upstate kinase Profiler counter-screening", "format": "biochemical"}, "[16]": {"molecular_target": "T11, cSRC (Homo sapiens, UniProt P12931)", "T11 construct": "purchased Upstate", "test": "Upstate kinase Profiler counter-screening", "format": "biochemical"}, "[17]": {"test_system": "CaMKII", "format": "biochemical"}, "[18]": {"molecular_target": "T12, YES (Homo sapiens, UniProt P07947)", "T12 construct": "purchased Upstate", "T12 sequence (P07947 whole entry, species assumed)": "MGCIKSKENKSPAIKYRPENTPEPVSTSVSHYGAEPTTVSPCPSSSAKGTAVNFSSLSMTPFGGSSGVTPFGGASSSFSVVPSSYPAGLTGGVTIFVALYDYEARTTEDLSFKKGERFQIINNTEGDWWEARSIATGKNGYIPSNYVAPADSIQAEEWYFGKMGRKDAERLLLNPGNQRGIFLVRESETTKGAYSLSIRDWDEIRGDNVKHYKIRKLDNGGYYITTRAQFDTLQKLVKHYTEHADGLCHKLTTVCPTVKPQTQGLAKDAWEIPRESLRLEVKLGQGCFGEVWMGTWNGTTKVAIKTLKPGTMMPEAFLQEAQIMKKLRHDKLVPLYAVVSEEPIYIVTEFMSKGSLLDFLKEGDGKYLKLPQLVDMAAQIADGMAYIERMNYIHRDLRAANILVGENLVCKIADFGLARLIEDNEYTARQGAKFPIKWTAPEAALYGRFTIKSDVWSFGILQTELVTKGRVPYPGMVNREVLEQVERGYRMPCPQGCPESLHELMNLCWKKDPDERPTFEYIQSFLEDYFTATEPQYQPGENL", "test": "Upstate kinase Profiler counter-screening", "format": "biochemical"}, "[19]": {"test_system": "H82 (SCLC)", "test": "xenograft tumor model", "conditions": "mouse, in vivo"}, "[20]": {"test_system": "A549 NSCLC xenografts", "conditions": "mouse, in vivo"}}, "note": "Read-outs that look alike come from different tables or passages of the source."}
{"compound": "CN1CC[C@H](c2c(O)cc(O)c3c(=O)cc(-c4ccccc4Cl)oc23)[C@H](O)C1", "note": "[Formula III, Flavopiridol, reference compound]", "values": [{"measurement": "% remaining activity", "setting": "[1]; at 1 μM", "value": 67, "unit": "%"}, {"measurement": "% remaining activity", "setting": "[1]; at 10 μM", "value": 20, "unit": "%"}, {"measurement": "remaining activity at 1 µM", "setting": "[2]; at 1 μM", "value": 18, "unit": "%"}, {"measurement": "remaining activity at 10 µM", "setting": "[2]; at 10 μM", "value": 6, "unit": "%"}, {"measurement": "MTD at 7 days", "setting": "[3]", "value": "< 10", "unit": "mg/kg"}, {"measurement": "IC50", "setting": "[4]", "value": 0.07, "unit": "µM"}, {"measurement": "MED", "setting": "[5]; once per day IP for 7 days, dose inducing at least 50% inhibition of tumor growth", "value": 10, "unit": "mg/kg"}, {"measurement": "remaining activity at 1 µM", "setting": "[6]; at 1 μM", "value": 73, "unit": "%"}, {"measurement": "remaining activity at 10 µM", "setting": "[6]; at 10 μM", "value": 18, "unit": "%"}, {"measurement": "remaining activity at 1 µM", "setting": "[7]; at 1 μM", "value": 45, "unit": "%"}, {"measurement": "remaining activity at 10 µM", "setting": "[7]; at 10 μM", "value": 9, "unit": "%"}, {"measurement": "remaining activity at 1 µM", "setting": "[8]; at 1 μM", "value": 66, "unit": "%"}, {"measurement": "remaining activity at 10 µM", "setting": "[8]; at 10 μM", "value": 20, "unit": "%"}, {"measurement": "remaining activity at 1 µM", "setting": "[9]; at 1 μM", "value": 65, "unit": "%"}, {"measurement": "remaining activity at 10 µM", "setting": "[9]; at 10 μM", "value": 18, "unit": "%"}, {"measurement": "remaining activity at 1 µM", "setting": "[10]; at 1 μM", "value": 25, "unit": "%"}, {"measurement": "remaining activity at 10 µM", "setting": "[10]; at 10 μM", "value": 6, "unit": "%"}, {"measurement": "remaining activity at 1 µM", "setting": "[11]; at 1 μM", "value": 23, "unit": "%"}, {"measurement": "remaining activity at 10 µM", "setting": "[11]; at 10 μM", "value": 5, "unit": "%"}, {"measurement": "concentration required to induce detectable effects on phospho-Ser 807/811 levels", "setting": "[12]", "value": "about 1 micromolar"}, {"measurement": "remaining activity at 1 µM", "setting": "[13]; at 1 μM", "value": 44, "unit": "%"}, {"measurement": "remaining activity at 10 µM", "setting": "[13]; at 10 μM", "value": 13, "unit": "%"}, {"measurement": "remaining activity at 1 µM", "setting": "[14]; at 1 μM", "value": 75, "unit": "%"}, {"measurement": "remaining activity at 10 µM", "setting": "[14]; at 10 μM", "value": 26, "unit": "%"}, {"measurement": "remaining activity at 1 µM", "setting": "[15]; at 1 μM", "value": 74, "unit": "%"}, {"measurement": "remaining activity at 10 µM", "setting": "[15]; at 10 μM", "value": 37, "unit": "%"}, {"measurement": "remaining activity at 1 µM", "setting": "[16]; at 1 μM", "value": 3, "unit": "%"}, {"measurement": "remaining activity at 10 µM", "setting": "[16]; at 10 μM", "value": 4, "unit": "%"}, {"measurement": "% remaining activity", "setting": "[17]; at 1 μM", "value": 44, "unit": "%"}, {"measurement": "% remaining activity", "setting": "[17]; at 10 μM", "value": 30, "unit": "%"}, {"measurement": "remaining activity at 1 µM", "setting": "[18]; at 1 μM", "value": 68, "unit": "%"}, {"measurement": "remaining activity at 10 µM", "setting": "[18]; at 10 μM", "value": 40, "unit": "%"}]}
{"compound": "N.N.O=C([O-])C1(C(=O)[O-])CCC1.[Pt+2]", "note": "[carboplatin, reference compound]", "values": [{"measurement": "% inhibition observed with benchmark cytotoxic agent", "setting": "[19]", "value": 40, "unit": "%"}]}
{"compound": "CC(=O)O[C@H]1C(=O)[C@@]2(C)[C@H]([C@H](OC(=O)c3ccccc3)[C@]3(O)C[C@H](OC(=O)[C@H](O)[C@@H](NC(=O)c4ccccc4)c4ccccc4)C(C)=C1C3(C)C)[C@]1(OC(C)=O)CO[C@@H]1C[C@@H]2O", "note": "[paclitaxel, reference compound]", "values": [{"measurement": "tumor growth inhibited", "setting": "[5]; 20 mg/kg IP twice weekly, ten day period", "value": 63, "unit": "%"}, {"measurement": "% inhibition observed with benchmark cytotoxic agent", "setting": "[20]", "value": 0, "unit": "%"}]}
